Laboratory results published in US20170246130A1, “4-HYDROXYBENZOHYDARZIDE-A NEW CLASS OF ANGIOGENIC ENZYME THYMIDINE PHOSPHORYLASE INHIBITORS” (priority 2016, published 2017).
Entries after “also recorded” stand apart in the source; their conditions may differ.

Tests used:
[1] = system: prostate cancer line (PC3); assay: MTT anti-proliferative assay, PC3 cells; assay type: cell-based; conditions: for IC50 ± SD (μM), PC3 Cell Line: PC3 cells
Protocol: (§1) Compounds found to be active in inhibiting thymidine phosphorylase were then subjected to MTT proliferation assay. Rapid proliferation is the property inherent to cancerous/tumor cells. This assay was carried out to study the effect of these compounds on proliferation of various cell lines. The cell lines which we targeted were mouse fibroblast cell line (3T3), and prostate cancer line (PC3).
(§2) Anti-proliferative activity of active compounds was evaluated by using the standard MTT (3-[4,5-dimethylthiazole-2-yl]-2,5-diphenyl-tetrazolium bromide) colorimetric assay in 96-well plate (Dimas et al., 1998).
(§3) It is a colorimetric assay that measures the reduction of MTT, by mitochondrial enzyme i.e. succinate dehydrogenase. The MTT enters into the mitochondria of cell, where it is reduced to an insoluble formazan salt (FIG. 8). The extent of MTT reduction was measured at 540 nm. As reduction of MTT can only occur in metabolically active cells, the level of activity is actually a measure of the viability of the cells (Vega-Avila and Pugsley, 2011).
(§4) Mouse fibroblast cell line 3T3 was cultured in DMEM, supplemented with 5% of FBS, 100 IU/mL of penicillin and 100 μg/mL of streptomycin, and kept at 37° C. in 5% CO2 incubator. For the preparation of cell culture, 100 μL/well of cell solution (5×10^4 cells/mL) was added into 96-well plate. The plate was incubated for overnight, and fresh medium was added after the removal of old medium. The test compounds were also added in different concentrations into the plate and plate was again incubated for 48 h. After the completion of this incubation period, 200 μL MTT (0.5 mg/mL) was added and plate was again incubated for 4 h, after this final incubation 100 μL of DMSO was added to each well. The level of MTT reduction to formazan was evaluated by change in absorbance at 540 nm using a micro plate reader (Spectra Max plus, Molecular Devices, CA, USA).

[2] = target: T1, thymidine phosphorylase (E. coli) (Escherichia coli, UniProt P07650); assay: In-vitro thymidine phosphorylase inhibition assay (spectrophotometric); assay type: biochemical; conditions: recombinant E. coli TP, thymidine substrate, pH 7.0, 30° C., 290 nm; read-out: IC50 (μM ± S.E.M.), thymidine phosphorylase inhibition
T1 construct: purchased Sigma Aldrich, USA; host or cells: Escherichia coli
T1 sequence (P07650 whole entry): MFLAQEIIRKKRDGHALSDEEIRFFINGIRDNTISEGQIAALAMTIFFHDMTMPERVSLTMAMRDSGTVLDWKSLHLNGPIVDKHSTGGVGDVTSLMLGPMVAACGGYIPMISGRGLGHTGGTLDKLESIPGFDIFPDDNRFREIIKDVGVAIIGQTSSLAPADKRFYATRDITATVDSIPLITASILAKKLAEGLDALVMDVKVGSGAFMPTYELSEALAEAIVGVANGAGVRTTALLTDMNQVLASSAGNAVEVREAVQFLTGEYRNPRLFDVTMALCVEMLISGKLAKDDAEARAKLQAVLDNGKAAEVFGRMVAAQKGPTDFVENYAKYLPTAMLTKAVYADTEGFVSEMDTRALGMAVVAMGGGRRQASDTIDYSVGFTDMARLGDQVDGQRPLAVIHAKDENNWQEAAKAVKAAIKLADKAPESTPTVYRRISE
Protocol: In vitro studies on thymidine phosphorylase were carried out in 96-well microtiter plate using Spectra Max-340 and Spectra Max-384 spectrophotometers (Molecular Devices, CA, USA). Deionized water used for buffer preparation was collected by Simplicity Water Purification System (Milipore).
Since human TP is not commercially available, we used commercially available recombinant E. coli TP (expressed in Escherichia coli) enzyme. Primary sequence of TP is mostly conserved throughout the evolution as mammalian TP share 39% sequence similarity with TP of E. coli. The mammalian enzyme also shared 65-70% similarity with the active site residues of E. coli TP enzyme (Bronckaers et al., 2009). Assay for thymidine phosphorylase inhibition was performed spectrophotometrically, following method of Bera et al. with some modifications (Bera et al., 2013).
The reaction catalyzed by thymidine phosphorylase involves reversible phosphorolysis of thymidine (FIG. 1), to thymine and 2-deoxyribose-1-phosphate (Bronckaers et al., 2009).
Reaction mixture contained 150 μL of potassium phosphate buffer (pH 7.0, 50 mM), 20 µL of enzyme (0.058 U/well) and 10 μL of test compound (0.5 mM in dimethylsulfoxide). The reaction mixture was incubated for 10 min at 30° C.
The enzyme inhibitory activities were calculated using the following formula:
Percent Inhibition=100−(O.D. of test/O.D. of control)×100
Where test is the enzyme activity with sample, and control is the enzyme activity without sample, and O.D. is optical density.
The IC50 of the compounds was calculated using EZ-Fit Enzyme Kinetic Program (Perrella Scientific Inc., Amhrest, U.S.A.).

[3] = system: mouse fibroblast cell line (3T3); assay: MTT anti-proliferative assay, 3T3 cells; assay type: cell-based; conditions: for inhibition of the proliferation of 3T3 cells (in words): in comparison to cyclohexamide; for IC50 ± SD (μM), 3T3 Cell Line: 48 h, 3T3 cells
Protocol: as §1, §2, §3, §4

[4] = target: T1, thymidine phosphorylase (E. coli); assay: Kinetic (mechanistic) studies on thymidine phosphorylase; assay type: biochemical; conditions: for Inhibition Type: Lineweaver-Burk plot; for Inhibition Type / Ki: thymidine as variable substrate; for Ki: secondary re-plot, confirmed by Dixon plot, read-out: Ki (μM ± S.E.M.), dissociation constant; for apparent Vmax (Lineweaver-burk plot) / apparent km of the enzyme (Lineweaver-burk plot): absence and different concentrations of compound
Protocol: These studies disclose the mechanism of inhibitor binding to enzyme. Kinetic studies were carried out using thymidine as variable substrate. […] This was deduced from Lineweaver Burk plot. This compound therefore, interacted either with the amino acids of hydrophobic pocket of the enzyme or at allosteric site of the enzyme. […] Uncompetitive inhibitor causes decrease in both Km and Vmax values of the enzyme (Figure-6). […] Ki values were determined by secondary re-plot, and confirmed by Dixon plot.
Kinetic studies were carried out to find the mechanism of inhibitor action. Inhibitor could bind with enzyme in multiple ways such as in competitive, non-competitive, mixed or uncompetitive way. In kinetic assay, the enzyme (0.058 U/200 μL) was incubated with different concentrations of inhibitor for 10 min at 30° C. The reactions was then initiated by adding different concentrations (0.1875 mM-1.5 mM) of substrate (thymidine) and the resulting degradation of thymidine was measured continuously at 290 nm for 10 min on a ELISA plate reader. Every experiment was run in triplicate.
Line-weaver Burk plot was plotted to determine the type of inhibition. This was accomplished by plotting the reciprocal of the rate of reaction against the reciprocal of the substrate concentration. Ki values were determined by secondary re-plot, and reconfirmed by Dixon plot. The Ki was determined by non-linear regression equation.

SMILES	IC50 ± SD (μM), PC3 Cell Line [1]	IC50 [2] [µM]	inhibition of the proliferation of 3T3 cells (in words) [3]	Inhibition Type [4]	Ki [4] [µM]	apparent Vmax (Lineweaver-burk plot) [4]	apparent km of the enzyme (Lineweaver-burk plot) [4]	IC50 ± SD (μM), 3T3 Cell Line [3]	IC50 ([1]; Homo sapiens, PC-3, PC3 cells, read-out: IC50 ± SD (μM), PC3 Cell Line) [µM]	inhibition of the proliferation of PC3 cancer cells (in words) ([1]; in comparison of doxorubucin)
O=C(N/N=C/c1ccc(O)c(O)c1)c1ccc(O)cc1 [Compound 5, 4-Hydroxy-N′-[(E)-(3,4-dihydroxyphenyl)methylidene]benzohydrazide]	Inactive	229.5 ± 0.4	significantly inhibit	un-competitive; also recorded: Uncompetitive	176.65 ± 0.006	–	–	–	–	–
C/C(=N\NC(=O)c1ccc(O)cc1)c1c(O)cccc1O [Compound 27, 4-Hydroxy-N′-[(E)-1-(2,6-dihydroxyphenyl)ethylidene]benzohydrazide]	Inactive	176.9 ± 1.6	significantly inhibit	un-competitive; also recorded: Uncompetitive	168 ± 0.003	decreased	remains unaffected	–	–	–
Oc1nc(O)c2cc[nH]c2n1 [7-Deazaxanthine, 2,4-Dihydroxypyrrolo[2,3-d]pyrimidine, reference compound]	–	–	–	Non-Competitive	–	–	–	–	–	–
CC/C(=N\NC(=O)c1ccc(O)cc1)c1cc(O)ccc1O [Compound 30, 4-Hydroxy-N′-[(E)-1-(2,5-dihydroxyphenyl)propylidene]benzohydrazide]	Inactive	173 ± 1.4	significantly inhibit	un-competitive; also recorded: Uncompetitive	159.05 ± 0.002	–	–	–	–	–
O=C(N/N=C/c1ccc(Br)cc1)c1ccc(O)cc1 [Compound 14, 4-Hydroxy-N′-[(E)-(4-bromophenyl)methylidene]benzohydrazide]	Inactive	158 ± 1	–	un-competitive; also recorded: Uncompetitive	80.5 ± 0.002	–	–	Inactive	–	–
O=C(N/N=C/c1ccc(Cl)cc1)c1ccc(O)cc1 [Compound 12, 4-Hydroxy-N′-[(E)-(4-chlorophenyl)methylidene]benzohydrazide]	Inactive	159 ± 0.4	–	un-competitive; also recorded: Uncompetitive	138 ± 0.009	–	–	Inactive	–	–
O=C(N/N=C/c1cc(Br)cc(Br)c1O)c1ccc(O)cc1 [Compound 24, 4-Hydroxy-N′-[(E)-(3,5-dibromo-2-hydroxyphenyl)methylidene]benzohydrazide]	–	6.8 ± 0.7	significantly inhibit	Non-Competitive	1.75 ± 0.009	decreased	remains unaffected	–	8.34 ± 0.965	significantly inhibit
O=C(N/N=C/c1cccc(Cl)c1)c1ccc(O)cc1 [Compound 13, 4-Hydroxy-N′-[(E)-(3-chlorophenyl)methylidene]benzohydrazide]	Inactive	160.3 ± 1	–	–	–	–	–	Inactive	–	–
